From patent publication US20120141386A1, “Application of Antimicrobial and Glycemic Control Activities of Lo Han Kuo Fruit (Siraitia grosvenorii)” (ORACEUTICALS, INC., priority 2010, published 2012)
“Also recorded” adds a separate entry of the source. Like-named read-outs stand apart in the source and are kept apart here.

How the values were obtained:
Assay type in all cases: cell-based
A. actinomycetemcomitans = assay: Inhibition of growth of oral bacteria, A. actinomycetemcomitans; settings: 500 μM
Experimental: (§1) The concentration of 500 μM of mogroside II, III, IV, V, VI, 11-o-Mogroside V, and Siamenoside I, siraitiflavandiol, rhamnocitrin-3-O-rhamnoside, and kaempferitrin were used to test the inhibition activity against the growth of oral bacteria, A. actinomycetemcomitans and P. gingivalis.

P. gingivalis = assay: Inhibition of growth of oral bacteria, P. gingivalis
Experimental: as §1

C. albicans = assay: In vitro inhibition of growth of C. albicans
Experimental: Mogroside II, III, IV, V, VI, 11-o-Mogroside V, and Siamenoside I were also evaluated in vitro for inhibition of growth of C. albicans.

| Molecule | antimicrobial activity against A. actinomycetemcomitans (growth inhibition) (A. actinomycetemcomitans) | antimicrobial activity against P. gingivalis (growth inhibition) (P. gingivalis; 500 μM) | antimicrobial activity against C. albicans (growth inhibition) (C. albicans; in vitro) | antimicrobial activity against P. gingivalis (growth inhibition) (P. gingivalis) | antimicrobial activity against C. albicans (growth inhibition) (C. albicans) |
| --- | --- | --- | --- | --- | --- |
| C[C@H](CC[C@@H](O[C@@H]1O[C@H](CO[C@@H]2O[C@H](CO)[C@@H](O)[C@H](O)[C@H]2O)[C@@H](O)[C@H](O)[C@H]1O[C@@H]1O[C@H](CO)[C@@H](O)[C@H](O)[C@H]1O)C(C)(C)O)[C@H]1CC[C@@]2(C)[C@@H]3CC=C4[C@@H](CC[C@H](O[C@@H]5O[C@H](CO[C@@H]6O[C@H](CO)[C@@H](O)[C@H](O)[C@H]6O)[C@@H](O)[C@H](O)[C@H]5O)C4(C)C)[C@]3(C)C(=O)C[C@]12C [11-o-Mogroside V] | higher antimicrobial activity than mogroside II and III | higher antimicrobial activity than mogroside III | higher antimicrobial activity than mogroside VI and Siamenoside I | – | – |
| C[C@H](CC[C@@H](O[C@@H]1O[C@H](CO[C@@H]2O[C@H](CO)[C@@H](O)[C@H](O)[C@H]2O)[C@@H](O)[C@H](O)[C@H]1O[C@@H]1O[C@H](CO)[C@@H](O)[C@H](O)[C@H]1O)C(C)(C)O)[C@H]1CC[C@@]2(C)[C@@H]3CC=C4[C@@H](CC[C@H](O[C@@H]5O[C@H](CO)[C@@H](O)[C@H](O)[C@H]5O)C4(C)C)[C@]3(C)[C@H](O)C[C@]12C [Siamenoside I] | – | – | mogroside II, III, IV, V, and 11-o-Mogroside V showed higher antimicrobial activity than mogroside VI and Siamenoside I | – | – |
| C[C@@H]1O[C@@H](Oc2cc(O)c3c(=O)c(O[C@@H]4O[C@@H](C)[C@H](O)[C@@H](O)[C@H]4O)c(-c4ccc(O)cc4)oc3c2)[C@H](O)[C@H](O)[C@H]1O [kaempferitrin] | – | highest activity | good activity | – | – |
| C[C@H](CC[C@@H](O[C@@H]1O[C@H](CO[C@@H]2O[C@H](CO)[C@@H](O)[C@H](O)[C@H]2O)[C@@H](O)[C@H](O)[C@H]1O)C(C)(C)O)[C@H]1CC[C@@]2(C)[C@@H]3CC=C4[C@@H](CC[C@H](O[C@@H]5O[C@H](CO)[C@@H](O)[C@H](O)[C@H]5O)C4(C)C)[C@]3(C)[C@H](O)C[C@]12C [mogroside III] | mogroside IV, V, VI, 11-o-Mogroside V showed higher antimicrobial activity than mogroside II and III | mogroside II, IV, V, VI, 11-o-Mogroside V showed higher antimicrobial activity than mogroside III | higher antimicrobial activity than mogroside VI and Siamenoside I | – | – |
| C[C@H](CC[C@@H](O[C@@H]1O[C@H](CO)[C@@H](O)[C@H](O)[C@H]1O[C@@H]1O[C@H](CO)[C@@H](O)[C@H](O)[C@H]1O)C(C)(C)O)[C@H]1CC[C@@]2(C)[C@H]3CC=C4[C@@H](CC[C@H](O[C@@H]5O[C@H](CO[C@@H]6O[C@H](CO)[C@@H](O)[C@H](O)[C@H]6O)[C@@H](O)[C@H](O)[C@H]5O)C4(C)C)[C@]3(C)[C@H](O)C[C@]12C [mogroside IV] | higher antimicrobial activity than mogroside II and III | higher antimicrobial activity than mogroside III | higher antimicrobial activity than mogroside VI and Siamenoside I | – | – |
| C[C@H](CC[C@@H](O[C@@H]1O[C@H](CO[C@@H]2O[C@H](CO)[C@@H](O)[C@H](O)[C@H]2O)[C@@H](O)[C@H](O)[C@H]1O[C@@H]1O[C@H](CO)[C@@H](O)[C@H](O)[C@H]1O)C(C)(C)O)[C@H]1CC[C@@]2(C)[C@@H]3CC=C4[C@@H](CC[C@H](O[C@@H]5O[C@H](CO[C@@H]6O[C@H](CO)[C@@H](O)[C@H](O)[C@H]6O)[C@@H](O)[C@H](O)[C@H]5O)C4(C)C)[C@]3(C)[C@H](O)C[C@]12C [mogroside V, Mogroside V] | higher antimicrobial activity than mogroside II and III; also recorded: highest activity | higher antimicrobial activity than mogroside III | higher antimicrobial activity than mogroside VI and Siamenoside I | – | – |
| C[C@H](CC[C@@H](O[C@@H]1O[C@H](CO[C@@H]2O[C@H](CO)[C@@H](O)[C@H](O)[C@H]2O)[C@@H](O)[C@H](O)[C@H]1O[C@@H]1O[C@H](CO)[C@@H](O)[C@H](O)[C@H]1O)C(C)(C)O)[C@H]1CC[C@@]2(C)[C@H]3CC=C4[C@H](CC[C@H](O[C@@H]5O[C@H](CO[C@@H]6O[C@H](CO)[C@@H](O)[C@H](O)[C@H]6O)[C@@H](O)[C@H](O)[C@H]5O[C@@H]5O[C@H](CO)[C@@H](O)[C@H](O)[C@H]5O)C4(C)C)[C@]3(C)[C@H](O)C[C@]12C [mogroside VI] | higher antimicrobial activity than mogroside II and III | higher antimicrobial activity than mogroside III | mogroside II, III, IV, V, and 11-o-Mogroside V showed higher antimicrobial activity than mogroside VI and Siamenoside I | – | – |
| mogroside II | mogroside IV, V, VI, 11-o-Mogroside V showed higher antimicrobial activity than mogroside II and III | higher antimicrobial activity than mogroside III | higher antimicrobial activity than mogroside VI and Siamenoside I | – | – |
| rhamnocitrin-3-O-rhamnoside | – | – | – | highest activity | good activity |
| siraitiflavandiol | – | highest activity | good activity | – | – |
